BindingDB's records for PubMed 8627566 (Hoechst Marion Roussel, 1996)
Starred links: 1 amine or outer side, 2 acyl side, 3 side chain; linkers in the order of their positions; H or OH if unused. Positions of bridges follow the written chain, without caps; N, C: chain ends. Non-standard residues stand in square brackets, D forms with d. Residues, ends and D or L forms follow the SMILES beside them. *: point of attachment. X2 = CN(C(=Cc1ccc(O)cc1)C(=O)[*:2])[*:1]; X1 = CCCCCc1ccccc1CCC(=O)*

Tests used:
[1] = target: T1, Substance-K receptor (Homo sapiens, UniProt P21452)
T1 sequence (P21452 whole entry): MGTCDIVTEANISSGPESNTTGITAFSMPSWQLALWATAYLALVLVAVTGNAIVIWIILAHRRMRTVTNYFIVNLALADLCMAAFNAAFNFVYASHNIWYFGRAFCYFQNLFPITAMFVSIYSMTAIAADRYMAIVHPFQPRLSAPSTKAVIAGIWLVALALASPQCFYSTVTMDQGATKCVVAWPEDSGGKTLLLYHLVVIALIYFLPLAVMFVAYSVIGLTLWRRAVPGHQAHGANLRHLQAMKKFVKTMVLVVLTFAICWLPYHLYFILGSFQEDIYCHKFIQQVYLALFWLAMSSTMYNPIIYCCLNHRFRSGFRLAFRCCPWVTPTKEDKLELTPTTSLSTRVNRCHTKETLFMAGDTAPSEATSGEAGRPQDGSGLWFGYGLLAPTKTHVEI

[2] = target: T2, Neuromedin-K receptor (Cavia porcellus, UniProt P30098)
T2 sequence (P30098 whole entry): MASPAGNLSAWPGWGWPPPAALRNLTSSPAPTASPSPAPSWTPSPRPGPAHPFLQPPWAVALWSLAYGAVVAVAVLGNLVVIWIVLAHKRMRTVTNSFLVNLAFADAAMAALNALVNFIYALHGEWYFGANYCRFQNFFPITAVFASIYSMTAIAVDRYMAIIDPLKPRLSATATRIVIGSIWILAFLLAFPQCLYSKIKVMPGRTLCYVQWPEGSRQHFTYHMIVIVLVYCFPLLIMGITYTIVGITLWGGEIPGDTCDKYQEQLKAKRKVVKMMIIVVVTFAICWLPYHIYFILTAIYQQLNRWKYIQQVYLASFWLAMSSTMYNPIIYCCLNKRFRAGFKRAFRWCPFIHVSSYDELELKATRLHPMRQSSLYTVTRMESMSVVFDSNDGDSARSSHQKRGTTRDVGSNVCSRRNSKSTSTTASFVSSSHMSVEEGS

[3] = target: T3, Substance-K receptor (Mesocricetus auratus, UniProt P51144)
T3 sequence (P51144 whole entry): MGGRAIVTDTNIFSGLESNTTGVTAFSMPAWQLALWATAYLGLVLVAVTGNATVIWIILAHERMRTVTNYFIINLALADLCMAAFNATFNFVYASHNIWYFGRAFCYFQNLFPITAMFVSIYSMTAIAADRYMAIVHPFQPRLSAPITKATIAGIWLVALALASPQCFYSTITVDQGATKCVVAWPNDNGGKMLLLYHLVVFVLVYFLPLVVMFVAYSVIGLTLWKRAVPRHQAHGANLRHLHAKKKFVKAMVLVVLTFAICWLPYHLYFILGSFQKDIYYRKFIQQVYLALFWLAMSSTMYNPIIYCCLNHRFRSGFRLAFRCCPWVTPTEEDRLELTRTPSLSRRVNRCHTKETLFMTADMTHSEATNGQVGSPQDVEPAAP

[4] = target: Substance-P receptor (Cavia porcellus, UniProt P30547)
[5] = target: Substance-P receptor (Homo sapiens, UniProt P25103)
[6] = target: Substance-P receptor (Rattus norvegicus, UniProt P14600)
[7] = target: T4, Substance-K receptor (Bos taurus, UniProt P05363)
T4 sequence (P05363 whole entry): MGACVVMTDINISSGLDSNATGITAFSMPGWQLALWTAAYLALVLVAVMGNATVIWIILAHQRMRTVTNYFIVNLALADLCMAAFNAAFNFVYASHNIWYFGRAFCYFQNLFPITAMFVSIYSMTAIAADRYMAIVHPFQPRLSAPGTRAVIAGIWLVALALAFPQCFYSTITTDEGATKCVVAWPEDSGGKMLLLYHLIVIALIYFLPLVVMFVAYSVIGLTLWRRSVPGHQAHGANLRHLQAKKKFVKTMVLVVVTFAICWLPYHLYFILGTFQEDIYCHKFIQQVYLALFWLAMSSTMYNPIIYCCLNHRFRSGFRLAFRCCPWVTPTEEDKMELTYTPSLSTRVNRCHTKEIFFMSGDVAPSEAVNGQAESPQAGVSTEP

Substance-P receptor (Homo sapiens, UniProt P25103), sequence (P25103 whole entry): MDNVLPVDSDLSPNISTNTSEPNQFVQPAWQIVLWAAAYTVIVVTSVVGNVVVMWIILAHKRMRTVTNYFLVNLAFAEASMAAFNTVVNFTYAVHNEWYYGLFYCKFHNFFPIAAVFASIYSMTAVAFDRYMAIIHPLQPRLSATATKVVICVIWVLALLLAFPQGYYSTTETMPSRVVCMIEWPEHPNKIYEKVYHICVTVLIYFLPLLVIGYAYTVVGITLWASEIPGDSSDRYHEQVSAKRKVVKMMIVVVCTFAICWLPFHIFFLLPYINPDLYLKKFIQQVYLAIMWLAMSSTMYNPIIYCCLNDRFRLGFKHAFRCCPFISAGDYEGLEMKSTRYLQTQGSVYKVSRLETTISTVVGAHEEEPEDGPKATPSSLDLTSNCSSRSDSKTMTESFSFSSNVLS
Substance-P receptor (Rattus norvegicus, UniProt P14600), sequence (P14600 whole entry): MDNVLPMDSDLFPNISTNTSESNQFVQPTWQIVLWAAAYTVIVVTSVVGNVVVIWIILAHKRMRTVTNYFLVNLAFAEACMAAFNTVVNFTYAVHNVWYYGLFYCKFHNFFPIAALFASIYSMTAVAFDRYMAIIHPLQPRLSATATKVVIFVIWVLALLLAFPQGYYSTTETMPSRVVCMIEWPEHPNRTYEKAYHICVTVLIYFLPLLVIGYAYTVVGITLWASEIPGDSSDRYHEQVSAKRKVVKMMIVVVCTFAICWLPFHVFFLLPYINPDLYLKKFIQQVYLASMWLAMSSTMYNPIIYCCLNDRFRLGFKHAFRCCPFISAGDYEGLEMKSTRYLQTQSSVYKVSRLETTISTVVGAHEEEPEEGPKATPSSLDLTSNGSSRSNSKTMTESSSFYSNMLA
Substance-P receptor (Cavia porcellus, UniProt P30547), sequence (P30547 whole entry): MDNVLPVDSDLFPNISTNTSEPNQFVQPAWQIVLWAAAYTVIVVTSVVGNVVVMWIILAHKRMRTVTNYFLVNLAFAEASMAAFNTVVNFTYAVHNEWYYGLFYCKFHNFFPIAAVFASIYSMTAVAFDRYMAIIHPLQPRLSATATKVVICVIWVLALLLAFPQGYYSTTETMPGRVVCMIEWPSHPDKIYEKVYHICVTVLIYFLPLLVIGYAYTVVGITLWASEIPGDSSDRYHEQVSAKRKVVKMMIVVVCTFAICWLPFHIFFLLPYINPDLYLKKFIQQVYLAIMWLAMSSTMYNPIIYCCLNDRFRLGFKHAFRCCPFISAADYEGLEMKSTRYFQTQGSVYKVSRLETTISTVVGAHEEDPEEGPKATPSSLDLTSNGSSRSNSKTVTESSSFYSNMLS

| SMILES | Ki [1] [nM] | Ki [2] [nM] | Ki [3] [nM] | Ki [4] [nM] | Ki [5] [nM] | Ki [6] [nM] | Ki [7] [nM] |
| --- | --- | --- | --- | --- | --- | --- | --- |
| COc1ccccc1CN[C@H]1C2CCN(CC2)[C@H]1C(c1ccccc1)c1ccccc1 | > 10000 | > 10000 | – | – | – | – | – |
| COc1cc(C(=O)N2CC[C@@](CCN3CCC(C(N)=O)(c4ccccc4)CC3)(c3ccc(Cl)c(Cl)c3)C2)cc(OC)c1OC | 8.4 | 21 | 6.98 | 2.12 | 3.11 | 408 | 8.49 |
| COc1cc(C(=O)N2CC[C@](CCN3CCC(C(N)=O)(c4ccccc4)CC3)(c3ccc(Cl)c(Cl)c3)C2)cc(OC)c1OC | 21 | 54.3 | – | 5.88 | 7.07 | – | – |
| COc1cc(C(=O)N2CC[C@](CCN3CCC(C(N)=O)(c4ccccc4)CC3)(c3ccc(Cl)c(Cl)c3)C2)cc(OC)c1OC [1-{2-[(R)-3-(3,4-Dichloro-phenyl)-1-(3,4,5-trimethoxy-benzoyl)-pyrrolidin-3-yl]-ethyl}-4-phenyl-piperidine-4-carboxylic acid amide] | 760 | 2310 | 711 | 183 | 160 | 2200 | 207 |
| CCCCCc1ccccc1CCC(=O)NC1C(=O)N(C)C(=Cc2ccc(O)cc2)C(=O)NC(CC(C)C)C(=O)NC(Cc2ccccc2)C(=O)NC(C(C)O)C(=O)NC(CC(N)=O)C(=O)NC(CO)C(=O)OC1C (stereo not given) [CAS_6437864] (X1-T[X2]LFTNS; ester 1-C; configuration not given here) | 434 | 3550 | 3590 | 98.7 | 215 | 228 | 311 |
| CN(Cc1ccccc1)C(=O)[C@@H](Cc1ccc2ccccc2c1)NC(=O)C1C[C@@H](O)CN1C(=O)c1cn(C)c2ccccc12 (stereo not given in full) [FK 888] | 1520 | 5620 | – | 3.13 | 1.49 | 2070 | – |
| COc1cc(C(=O)N2CC[C@@](CCN3CCC(C(N)=O)(c4ccccc4)CC3)(c3ccc(Cl)c(Cl)c3)C2)cc(OC)c1OC [MDL 105,212A (R)-enantiomer] | 7.93 | – | – | 2.99 | 3.69 | – | 8.4 |
| CSCC[C@H](NC(=O)[C@H](CC(C)C)NC(=O)CNC(=O)[C@@H](NC(=O)[C@H](Cc1ccccc1)NC(=O)[C@H](CO)NC(=O)[C@H](CC(=O)O)NC(=O)[C@@H](NC(=O)[C@H](CCCCN)NC(=O)[C@@H](N)Cc1cnc[nH]1)[C@@H](C)O)C(C)C)C(N)=O [Neurokinin alpha] | – | – | 1.8 | – | – | – | – |
| COc1ccccc1CC(=N)N1C[C@@H]2C(=O)CCC(c3ccccc3)(c3ccccc3)[C@@H]2C1 [RP-67580] | – | – | – | 36 | – | 8.29 | – |
| CC(=O)NC1(c2ccccc2)CCN(CCC(CN(C)C(=O)c2ccccc2)c2ccc(Cl)c(Cl)c2)CC1 (stereo not given) [SR 48968] | 0.44 | 208 | 7.32 | 217 | 593 | – | 0.71 |
